≈ marks a conversion by molar mass, not a printed value. Where “and” joins values, the source holds several entries; their conditions need not be identical. Identical values can stand only once. Like-named read-outs stand apart in the source and are kept apart here.
Experiments:
Format in all cases: cell-based
[1] = system: Torulopsis glabrata JHC-BC9951635; assay: In vitro study of inhibition of growth and lethality against yeast (MIC/MLC susceptibility test), isolate E; details: for Minimum Lethal Concentration (MLC), E: Table 4B summary, isolate E; for Minimum Inhibitory Conc. (MIC), 24 hr. / Minimum Inhibitory Conc. (MIC), 48 hr. / MIC: isolate assigned by line order; for MIC: Nakaseomyces glabratus
[2] = system: Candida albicans KJP-000531594; assay: In vitro study of inhibition of growth and lethality against yeast (MIC/MLC susceptibility test), isolate C; details: for Minimum Lethal Concentration (MLC), C: Table 4B summary, isolate C; for Minimum Inhibitory Conc. (MIC), 24 hr. / Minimum Inhibitory Conc. (MIC), 48 hr. / MIC: Candida albicans
[3] = system: Cryptococcus neoformans DLB-1027594CNC; assay: In vitro study of inhibition of growth and lethality against yeast (MIC/MLC susceptibility test), isolate G; details: for Minimum Lethal Concentration (MLC), G: Table 4B summary, isolate G; for MIC: DLB1027594CNC
[4] = system: Candida tropicalis ATCC 750; assay: In vitro study of inhibition of growth and lethality against yeast (MIC/MLC susceptibility test), isolate A; details: for Minimum Lethal Concentration (MLC), A: Table 4B summary, isolate A
[5] = system: Candida tropicalis ATCC 28707; assay: In vitro study of inhibition of growth and lethality against yeast (MIC/MLC susceptibility test), isolate B; details: for Minimum Lethal Concentration (MLC), B: Table 4B summary, isolate B
[6] = system: Torulopsis glabrata ERH-BC9938274; assay: In vitro study of inhibition of growth and lethality against yeast (MIC/MLC susceptibility test), isolate F; details: for Minimum Lethal Concentration (MLC), F: Table 4B summary, isolate F; for Minimum Inhibitory Conc. (MIC), 24 hr.: read at 24 hr; for MIC: Nakaseomyces glabratus
[7] = system: Candida albicans LH-000664533; assay: In vitro study of inhibition of growth and lethality against yeast (MIC/MLC susceptibility test), isolate D; details: for Minimum Lethal Concentration (MLC), D: Table 4B summary, isolate D
[8] = system: Cryptococcus neoformans SLP-BC0012854; assay: In vitro study of inhibition of growth and lethality against yeast (MIC/MLC susceptibility test), isolate H; details: for Minimum Lethal Concentration (MLC), H: Table 4B summary, isolate H
[9] = Torulopsis glabrata, 2nd pair of lines, read at 24 hr
[10] = Torulopsis glabrata, 2nd pair of lines, read at 48 hr
[11] = 1st pair of lines, read at 24 hr, isolate not given, assigned by line order and MLC of Table 4B
[12] = 1st pair of lines, read at 48 hr, isolate assigned by line order
[13] = Cryptococcus neoformans, 1st pair of lines, read at 72 hr, isolate assigned by line order
[14] = Torulopsis glabrata, 1st pair of lines, isolate assigned by line order

Fc1cc(F)c2[nH]c(CCCC[n+]3cccc4ccccc43)cc2c1 [Compound 0409]
Minimum Lethal Concentration (MLC), E [1]: 2 µg/mL | Minimum Lethal Concentration (MLC), C [2]: 1 µg/mL | Minimum Lethal Concentration (MLC), G [3]: 2 µg/mL | Minimum Lethal Concentration (MLC), A [4]: 1 µg/mL | Minimum Lethal Concentration (MLC), B [5]: 0.5 µg/mL | Minimum Lethal Concentration (MLC), F [6]: 2 µg/mL | Minimum Lethal Concentration (MLC), D [7]: 1 µg/mL | Minimum Lethal Concentration (MLC), H [8]: 2 µg/mL

C[C@@H]1[C@H](O)[C@@H](C)/C=C/C=C/C=C/C=C/C=C/C=C/C=C/[C@H](O[C@@H]2O[C@H](C)[C@@H](O)[C@H](N)[C@@H]2O)C[C@@H]2O[C@](O)(C[C@@H](O)C[C@@H](O)[C@H](O)CC[C@@H](O)C[C@@H](O)CC(=O)O[C@H]1C)C[C@H](O)[C@H]2C(=O)O [Amphotericin B]
Minimum Inhibitory Conc. (MIC), 24 hr. [1, 9]: 0.5 µg/mL | Minimum Inhibitory Conc. (MIC), 48 hr. [1, 10]: 1 µg/mL and 0.5 µg/mL | Minimum Inhibitory Conc. (MIC), 24 hr. [2, 11]: 0.5 µg/mL | Minimum Inhibitory Conc. (MIC), 48 hr. [2, 12]: 1 µg/mL | Minimum Inhibitory Conc. (MIC), 48 hr. ([3]; Cryptococcus neoformans, 1st pair of lines, read at 48 hr, isolate assigned by line order): 0.25 µg/mL | Minimum Inhibitory Conc. (MIC), 72 hr. [3, 13]: 0.25 µg/mL | Minimum Inhibitory Conc. (MIC), 24 hr. ([4]; Candida tropicalis, 2nd pair of lines, read at 24 hr, isolate assigned by line order): 0.5 µg/mL | Minimum Inhibitory Conc. (MIC), 48 hr. ([4]; Candida tropicalis, 2nd pair of lines, read at 48 hr, isolate assigned by line order): 0.5 µg/mL and 1 µg/mL | Minimum Inhibitory Conc. (MIC), 24 hr. ([5]; Candida tropicalis, 1st pair of lines, read at 24 hr, isolate assigned by line order): 2 µg/mL | Minimum Inhibitory Conc. (MIC), 48 hr. ([5]; Candida tropicalis, 1st pair of lines, read at 48 hr, isolate assigned by line order): 4 µg/mL | Minimum Inhibitory Conc. (MIC), 24 hr. [6, 14]: 0.5 µg/mL | Minimum Inhibitory Conc. (MIC), 48 hr. ([6]; Torulopsis glabrata, 1st pair of lines, read at 48 hr, isolate assigned by line order): 1 µg/mL | Minimum Inhibitory Conc. (MIC), 24 hr. ([7]; Candida albicans, 2nd pair of lines, read at 24 hr, isolate assigned by line order): 0.5 µg/mL | Minimum Inhibitory Conc. (MIC), 48 hr. ([7]; Candida albicans, 2nd pair of lines, read at 48 hr, isolate assigned by line order): 0.5 µg/mL | Minimum Inhibitory Conc. (MIC), 48 hr. ([8]; Cryptococcus neoformans, 2nd pair of lines, read at 48 hr, isolate assigned by line order): 0.5 µg/mL and 0.25 µg/mL

COC(=O)c1cc2cc(OCc3ccccc3)ccc2n1CCCCCCCCC[n+]1ccccc1 [Compound 230]
MIC ([1]; JHCBC9951635, 24 h, read-out: Minimum Inhibitory Conc. (MIC), 24 hr., Torulopsis glabrata, 2nd pair of lines, read at 24 hr): 1 µg/mL | MIC ([1]; JHCBC9951635, 48 h, read-out: Minimum Inhibitory Conc. (MIC), 48 hr., Torulopsis glabrata, 2nd pair of lines, read at 48 hr): 2 µg/mL | Minimum Inhibitory Conc. (MIC), 24 hr. [1, 9]: 2 µg/mL | Minimum Inhibitory Conc. (MIC), 24 hr. [2, 11]: 0.5 µg/mL | MIC ([2]; KJP000531594, 24 h, read-out: Minimum Inhibitory Conc. (MIC), 24 hr., Candida albicans, 1st pair of lines, read at 24 hr, isolate not given, assigned by line order and MLC of Table 4B): 1 µg/mL | MIC ([2]; KJP000531594, 48 h, read-out: Minimum Inhibitory Conc. (MIC), 48 hr., Candida albicans, 1st pair of lines, read at 48 hr, isolate assigned by line order): 1 µg/mL | MIC ([3]; Cryptococcus neoformans, 48 h, read-out: Minimum Inhibitory Conc. (MIC), 48 hr.): 1 µg/mL | MIC ([3]; Cryptococcus neoformans, 72 h, read-out: Minimum Inhibitory Conc. (MIC), 72 hr.): 1 µg/mL | MIC ([4]; Candida tropicalis, ATCC750, 24 h, read-out: Minimum Inhibitory Conc. (MIC), 24 hr.): 1 µg/mL | MIC ([4]; Candida tropicalis, ATCC750, 48 h, read-out: Minimum Inhibitory Conc. (MIC), 48 hr.): 1 µg/mL | MIC ([5]; Candida tropicalis, ATCC28707, 24 h, read-out: Minimum Inhibitory Conc. (MIC), 24 hr.): 0.5 µg/mL | MIC ([5]; Candida tropicalis, ATCC28707, 48 h, read-out: Minimum Inhibitory Conc. (MIC), 48 hr.): 0.5 µg/mL | MIC ([6]; ERHBC9938274, 24 h, read-out: Minimum Inhibitory Conc. (MIC), 24 hr., Torulopsis glabrata, 1st pair of lines, read at 24 hr, isolate assigned by line order): 1 µg/mL | MIC ([6]; ERHBC9938274, 48 h, read-out: Minimum Inhibitory Conc. (MIC), 48 hr., Torulopsis glabrata, 1st pair of lines, read at 48 hr, isolate assigned by line order): 2 µg/mL | Minimum Inhibitory Conc. (MIC), 24 hr. [6, 14]: 2 µg/mL | MIC ([7]; Candida albicans, LH000664533, 24 h, read-out: Minimum Inhibitory Conc. (MIC), 24 hr.): 1 µg/mL | MIC ([7]; Candida albicans, LH000664533, 48 h, read-out: Minimum Inhibitory Conc. (MIC), 48 hr.): 1 µg/mL | MIC ([8]; Cryptococcus neoformans, SLPBC0012854, 48 h, read-out: Minimum Inhibitory Conc. (MIC), 48 hr.): 1 µg/mL | MIC ([8]; Cryptococcus neoformans, SLPBC0012854, 72 h, read-out: Minimum Inhibitory Conc. (MIC), 72 hr.): 1 µg/mL

OC(Cn1cncn1)(Cn1cncn1)c1ccc(F)cc1F [Fluconazole]
MIC ([1]; JHCBC9951635, 24 h, Torulopsis glabrata, 2nd pair of lines, read at 24 hr, read-out: Minimum Inhibitory Conc. (MIC), 24 hr.): 2 µg/mL (≈ 6.53 µM) | MIC ([1]; JHCBC9951635, 48 h, Torulopsis glabrata, 2nd pair of lines, read at 48 hr, read-out: Minimum Inhibitory Conc. (MIC), 48 hr.): 8 µg/mL (≈ 26.1 µM) | Minimum Inhibitory Conc. (MIC), 48 hr. [1, 10]: 4 µg/mL | Minimum Inhibitory Conc. (MIC), 48 hr. [2, 12]: 2 µg/mL | MIC ([2]; KJP000531594, 24 h, 1st pair of lines, read at 24 hr, isolate not given, assigned by line order and MLC of Table 4B, read-out: Minimum Inhibitory Conc. (MIC), 24 hr.): 0.5 µg/mL (≈ 1.63 µM) | MIC ([2]; KJP000531594, 48 h, 1st pair of lines, read at 48 hr, isolate assigned by line order, read-out: Minimum Inhibitory Conc. (MIC), 48 hr.): 1 µg/mL (≈ 3.27 µM) | Minimum Inhibitory Conc. (MIC), 72 hr. [3, 13]: 64 µg/mL | MIC ([3]; Cryptococcus neoformans, 48 h, Cryptococcus neoformans, 1st pair of lines, read at 48 hr, isolate assigned by line order, read-out: Minimum Inhibitory Conc. (MIC), 48 hr.): > 64 µg/mL | MIC ([3]; Cryptococcus neoformans, 72 h, Cryptococcus neoformans, 1st pair of lines, read at 72 hr, isolate assigned by line order, read-out: Minimum Inhibitory Conc. (MIC), 72 hr.): > 64 µg/mL | MIC ([4]; Candida tropicalis, ATCC750, 24 h, Candida tropicalis, 2nd pair of lines, read at 24 hr, isolate assigned by line order, read-out: Minimum Inhibitory Conc. (MIC), 24 hr.): 1 µg/mL (≈ 3.27 µM) | MIC ([4]; Candida tropicalis, ATCC750, 48 h, Candida tropicalis, 2nd pair of lines, read at 48 hr, isolate assigned by line order, read-out: Minimum Inhibitory Conc. (MIC), 48 hr.): 4 µg/mL (≈ 13.1 µM) | MIC ([8]; Cryptococcus neoformans, SLPBC0012854, 48 h, Cryptococcus neoformans, 2nd pair of lines, read at 48 hr, isolate assigned by line order, read-out: Minimum Inhibitory Conc. (MIC), 48 hr.): 4 µg/mL (≈ 13.1 µM) | MIC ([8]; Cryptococcus neoformans, SLPBC0012854, 72 h, Cryptococcus neoformans, 2nd pair of lines, read at 72 hr, isolate assigned by line order, read-out: Minimum Inhibitory Conc. (MIC), 72 hr.): 4 µg/mL (≈ 13.1 µM)

COC(=O)c1cc2cc(OCc3ccccc3)ccc2n1CCCCCCOC(=O)c1cccnc1 [Compound 0951]
Minimum Lethal Concentration (MLC), E [1]: 2 µg/mL | Minimum Lethal Concentration (MLC), C [2]: 1 µg/mL | Minimum Lethal Concentration (MLC), G [3]: 4 µg/mL | Minimum Lethal Concentration (MLC), A [4]: 1 µg/mL | Minimum Lethal Concentration (MLC), B [5]: 1 µg/mL | Minimum Lethal Concentration (MLC), F [6]: 2 µg/mL | Minimum Lethal Concentration (MLC), D [7]: 2 µg/mL | Minimum Lethal Concentration (MLC), H [8]: 4 µg/mL
